From US6057325A, “Hexahydro-pyrido(4,3-b)indole derivatives as antipsychotic drugs” (Janssen Pharmaceutia, N.V., priority 1996, dated 2000)

Experiments:
Assay type in all cases: in vivo
[1] = test system: dopamine; test: Combined ATN test in rats: apomorphine (APO) challenge, central dopamine antagonism; details: Rattus norvegicus, sc, subcutaneous pretreatment, dose protecting 50% of animals, central dopamine antagonistic activity
[2] = test system: serotonin 5HT2 -receptors; test: Combined ATN test in rats: tryptamine (TRY) challenge, central and peripheral serotonin antagonism; details: subcutaneous pretreatment, dose protecting 50% of animals; for TRY convulsions ED50: central serotonin antagonistic activity; for TRY hyperaemia ED50: peripheral serotonin antagonistic activity
Excerpt: The central dopamine antagonistic and serotonin antagonistic activity of the subject compounds is evidenced by the experimental data obtained in the combined apomorphine (APO), tryptamine (TRY) and norepinephrine (NOR) test in rats. Said combined apomorphine, tryptamine and norepinephrine test is described in Arch. Int. Pharmacodyn., 227, 238-253 (1977) and provides an empirical evaluation of the relative specificity with which drugs may effect particular neurotransmitter systems centrally (CNS) as well as peripherally. […] Central dopamine antagonism is evaluated by challenging rats, subcutaneously pretreated with different doses of the test compound, with apomorphine which is a dopamine agonist. Next, serotonin antagonism is evaluated by challenging the same rats, subcutaneously pretreated with different doses of the test compound, with tryptamine which is an agonist at serotonin 5HT2 -receptors. Both central and peripheral serotonin antagonism can be assessed in this test. Centrally acting serotonin antagonists are potential antipsychotic drugs, in particular when simultaneously displaying dopamine antagonism in the first part of this test. Finally, α-adrenergic antagonistic activity of the test compounds is evaluated by challenging the same rats, subcutaneously pretreated with different doses of the test compound, with norepinephrine which is an α-adrenergic agonist.
The experimental data are summarized in Table 3 and expressed as ED50 values in mg/kg body weight, which are defined as the dose at which each of the tested compounds protects 50% of the tested animals from a relevant response evoked by the above-mentioned challenging substances. Column APO lists the results of the apomorphine challenge, indicating central dopamine antagonistic activity. Column TRY convulsions and TRY hyperaemia list the results of the tryptamine challenge, indicating central and peripheral serotonin antagonistic activity respectively. Column NOR lists the results of the norepinephrine challenge, indicating α-adrenergicantagonist activity. The favourable pharmacological properties of the compounds of formula (I) lie in their potent central dopamine (column APO) and serotonin (column TRY convulsions) antagonistic activity.

[3] = test system: α-adrenergic; test: Combined ATN test in rats: norepinephrine (NOR) challenge, α-adrenergic antagonist activity; details: Rattus norvegicus, sc, subcutaneous pretreatment, dose protecting 50% of animals

Compound | ED50 [1] | TRY convulsions ED50 [2] | TRY hyperaemia ED50 [2] | ED50 [3]
Cc1nc2sccn2c(=O)c1CCN1CC[C@H]2Nc3ccccc3[C@@H]2C1 (racemic) [Compound 11, (±)-trans-6-[2-(1,3,4,4a,5,9b-hexahydro-2H-pyrido[4,3-b]indol-2-yl)ethyl]-7-methyl-5H-thiazolo[3,2-a]pyrimidin-5-one] | 0.31 mg/kg | 0.31 mg/kg | ≤ 0.04 mg/kg | –
Cc1nc2sccn2c(=O)c1CCN1CC[C@H]2Nc3ccc(F)cc3[C@@H]2C1 (racemic) [Compound 15, (±)-trans-6-[2-(8-fluoro-1,3,4,4a,5,9b-hexahydro-2H-pyrido[4,3-b]indol-2-yl)ethyl]-7-methyl-5H-thiazolo[3,2-a]pyrimidin-5-one] | 0.31 mg/kg | 0.31 mg/kg | ≤ 0.0025 mg/kg | > 10 mg/kg
Cc1nc2n(c(=O)c1CCN1CC[C@@H]3[C@@H](C1)c1cc(F)ccc1N3c1ccc(F)cc1)CCS2 (racemic) [Compound 23, (±)-trans-6-[2-[8-fluoro-5-(4-fluoro-phenyl)-1,3,4,4a,5,9b-hexahydro-2H-pyrido[4,3-b]indol-2-yl]ethyl]-2,3-dihydro-7-methyl-5H-thiazolo[3,2-a]pyrimidin-5-one] | 0.12 mg/kg | 0.08 mg/kg | ≤ 0.01 mg/kg | 0.03 mg/kg
Cc1nc2scc(C)n2c(=O)c1CCN1CC[C@H]2Nc3ccccc3[C@@H]2C1 (relative stereo) [Compound 12] | 1.25 mg/kg | 1.25 mg/kg | 0.02 mg/kg | > 10 mg/kg
Cc1nc2n(c(=O)c1CCN1CC[C@H]3Nc4ccccc4[C@@H]3C1)CCS2 (relative stereo) [Compound 13] | 2.5 mg/kg | 5 mg/kg | ≤ 0.04 mg/kg | –
Cc1nc2ccccn2c(=O)c1CCN1CC[C@H]2Nc3ccccc3[C@@H]2C1 (relative stereo) [Compound 14] | 0.31 mg/kg | 1.25 mg/kg | ≤ 0.16 mg/kg | –
Cc1nc2scc(C)n2c(=O)c1CCN1CC[C@H]2Nc3ccc(F)cc3[C@@H]2C1 (relative stereo) [Compound 16] | 0.25 mg/kg | 0.45 mg/kg | 0.015 mg/kg | > 10 mg/kg
Cc1nc2ccccn2c(=O)c1CCN1CC[C@H]2Nc3ccc(F)cc3[C@@H]2C1 (relative stereo) [Compound 17] | 0.08 mg/kg | 0.5 mg/kg | ≤ 0.04 mg/kg | –
Cc1nc2n(c(=O)c1CCN1CC[C@H]3Nc4ccc(F)cc4[C@@H]3C1)CCCC2 (relative stereo) [Compound 18] | 0.31 mg/kg | 2 mg/kg | 0.02 mg/kg | –
Cc1nc2sccn2c(=O)c1CCN1CC[C@@H]2[C@@H](C1)c1ccccc1N2C (relative stereo) [Compound 19] | 8 mg/kg | 1.25 mg/kg | 0.31 mg/kg | 5 mg/kg
Cc1nc2ccccn2c(=O)c1CCN1CC[C@@H]2[C@@H](C1)c1ccccc1N2C (relative stereo) [Compound 20] | 1.25 mg/kg | 1.25 mg/kg | ≤ 0.63 mg/kg | 5 mg/kg
Cc1nc2sccn2c(=O)c1CCN1CC[C@H]2[C@H](C1)c1cc(F)ccc1N2c1ccc(F)cc1 (relative stereo) [Compound 22] | 1.25 mg/kg | 1.25 mg/kg | 0.08 mg/kg | 0.5 mg/kg
Cc1nc2scc(C)n2c(=O)c1CCN1CC[C@@H]2[C@@H](C1)c1cc(F)ccc1N2c1ccc(F)cc1 (relative stereo) [Compound 24] | 5 mg/kg | 1.25 mg/kg | ≤ 0.04 mg/kg | –
Cc1nc2n(c(=O)c1CCN1CC[C@@H]3[C@@H](C1)c1cc(F)ccc1N3c1ccc(F)cc1)CCCC2 (relative stereo) [Compound 25] | 0.31 mg/kg | 0.12 mg/kg | 0.02 mg/kg | –
Cc1nc2sccn2c(=O)c1CCN1CC[C@H]2Nc3ccc(Cl)cc3[C@@H]2C1 (relative stereo) [Compound 26] | 0.03 mg/kg | 0.02 mg/kg | 0.005 mg/kg | –
Cc1nc2scc(C)n2c(=O)c1CCN1CC[C@H]2Nc3ccc(Cl)cc3[C@@H]2C1 (relative stereo) [Compound 27] | 0.31 mg/kg | 0.31 mg/kg | 0.005 mg/kg | –
Cc1nc2ccccn2c(=O)c1CCN1CC[C@H]2Nc3ccc(Cl)cc3[C@@H]2C1 (relative stereo) [Compound 28] | 0.08 mg/kg | 0.12 mg/kg | 0.005 mg/kg | > 10 mg/kg
COc1ccc2c(c1)[C@@H]1CN(CCc3c(C)nc4sccn4c3=O)CC[C@H]1N2 (relative stereo) [Compound 29] | 5 mg/kg | 5 mg/kg | 0.02 mg/kg | –
COc1ccc2c(c1)[C@@H]1CN(CCc3c(C)nc4ccccn4c3=O)CC[C@H]1N2 (relative stereo) [Compound 30] | ≥ 10 mg/kg | 2 mg/kg | ≤ 0.16 mg/kg | –
Cc1nc(NCc2ccccc2)n(C)c(=O)c1CCN1CC[C@H]2Nc3ccc(F)cc3[C@@H]2C1 (relative stereo) [Compound 31] | 1.25 mg/kg | ≥ 10 mg/kg | ≤ 0.16 mg/kg | > 10 mg/kg
